Results from PubChem BioAssay AID256 (DTP/NCI, 2004).
“And” between values parts separate entries of the source, which are not always exact repeats. Equal entries are not always repeated. Toxic doses and inconclusive results are not listed. The calls were made as follows: active = survival T/C of 150% or more; inactive = T/C below 125% in these data.

System: CD2F1 mice, L1210 leukemia ip, survival T/C
Assay: NCI In Vivo Anticancer Drug Screen. Data for tumor model L1210 Leukemia (intraperitoneal) in CD2F1 (CDF1) mice
Settings: endpoint: mean survival time, higher = longer survival
Procedure, shortened: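 In this screen, transplantable tumors were grown in mice given either the compound or its vehicle. Results were expressed as the treated measurement relative to the control measurement.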

[1] = dose: 100.0 mg/kg/injection, schedule: Q01DX009 (ip), vehicle: saline with Tween-80
[2] = dose: 200.0 mg/kg/injection, schedule: Q01DX009 (ip), vehicle: saline with Tween-80
[3] = dose: 400.0 mg/kg/injection, schedule: Q01DX009 (ip), vehicle: saline with Tween-80
[4] = dose: 100.0 mg/kg/injection, schedule: Q04DX003 (ip), vehicle: saline with Tween-80
[5] = dose: 200.0 mg/kg/injection, schedule: Q04DX003 (ip), vehicle: saline with Tween-80
[6] = dose: 400.0 mg/kg/injection, schedule: Q04DX003 (ip), vehicle: saline with Tween-80
[7] = dose: 50.0 mg/kg/injection, schedule: Q04DX003 (ip), vehicle: saline with Tween-80
[8] = dose: 100.0 mg/kg/injection, schedule: Q01DX001 (ip), vehicle: saline with Tween-80
[9] = dose: 200.0 mg/kg/injection, schedule: Q01DX001 (ip), vehicle: saline with Tween-80
[10] = dose: 400.0 mg/kg/injection, schedule: Q01DX001 (ip), vehicle: saline with Tween-80
[11] = dose: 50.0 mg/kg/injection, schedule: Q01DX009 (ip), vehicle: saline with Tween-80
[12] = dose: 25.0 mg/kg/injection, schedule: Q01DX009 (ip), vehicle: saline with Tween-80
[13] = dose: 100.0 mg/kg/injection, schedule: Q04DX002 (ip), vehicle: saline with Tween-80
[14] = dose: 200.0 mg/kg/injection, schedule: Q04DX002 (ip), vehicle: saline with Tween-80
[15] = dose: 400.0 mg/kg/injection, schedule: Q04DX002 (ip), vehicle: saline with Tween-80

Measured: T/C

CN(Cc1ccccc1)N=Nc1ccccc1
inactive: dose: 18.75 mg/kg/injection, schedule: Q01DX009 (ip), vehicle: Klucel (hydroxypropylcellulose) (HPC) 103 % of control | dose: 37.5 mg/kg/injection, schedule: Q01DX009 (ip), vehicle: Klucel (hydroxypropylcellulose) (HPC) 107 % of control | dose: 75.0 mg/kg/injection, schedule: Q01DX001 (ip), vehicle: saline 108 % of control | dose: 75.0 mg/kg/injection, schedule: Q01DX009 (ip), vehicle: Klucel (hydroxypropylcellulose) (HPC) 113 % of control | dose: 150.0 mg/kg/injection, schedule: Q01DX001 (ip), vehicle: saline 108 % of control | dose: 150.0 mg/kg/injection, schedule: Q01DX009 (ip), vehicle: Klucel (hydroxypropylcellulose) (HPC) 119 % of control | dose: 300.0 mg/kg/injection, schedule: Q01DX001 (ip), vehicle: saline 111 % of control

CC(=O)Nc1cc(CN2CCCCC2)c(O)c2ncccc12
inactive: dose: 75.0 mg/kg/injection, schedule: Q01DX001 (ip), vehicle: other 102 % of control | dose: 150.0 mg/kg/injection, schedule: Q01DX001 (ip), vehicle: other 102 % of control

CCN1C=C/C(=C/c2cc3scc(-c4ccccc4)[n+]3c3ccccc23)c2ccccc21
inactive: dose: 0.01 mg/kg/injection, schedule: Q01DX009 (ip), vehicle: saline 97 % of control | dose: 0.02 mg/kg/injection, schedule: Q01DX009 (ip), vehicle: saline 100 % of control | dose: 0.04 mg/kg/injection, schedule: Q01DX009 (ip), vehicle: saline 103 % of control

COC(=O)c1ccc(=O)c2nc3/c(=C/O)c(O)cc(=O)c3[nH]c12
inactive: dose: 5.0 mg/kg/injection, schedule: Q04DX003 (ip), vehicle: saline with Tween-80 107 % of control | dose: 10.0 mg/kg/injection, schedule: Q04DX003 (ip), vehicle: saline with Tween-80 90 % of control

CS(=O)(=O)OC1CS(=O)(=O)Cc2ccccc21 (stereo not given)
inactive: dose: 100.0 mg/kg/injection, schedule: Q01DX001 (ip), vehicle: carboxymethylcellulose (CMC) 101 % of control | dose: 200.0 mg/kg/injection, schedule: Q01DX001 (ip), vehicle: carboxymethylcellulose (CMC) 101 % of control | dose: 400.0 mg/kg/injection, schedule: Q01DX001 (ip), vehicle: carboxymethylcellulose (CMC) 101 % of control

CN(C)CCNc1ccc(O)c2c1C(=O)c1ccccc1C2=O
inactive: dose: 10.0 mg/kg/injection, schedule: Q01DX009 (ip), vehicle: saline with Tween-80 94 % of control | dose: 20.0 mg/kg/injection, schedule: Q01DX009 (ip), vehicle: saline with Tween-80 90 % of control | dose: 40.0 mg/kg/injection, schedule: Q01DX009 (ip), vehicle: saline with Tween-80 107 % of control | dose: 80.0 mg/kg/injection, schedule: Q01DX009 (ip), vehicle: saline with Tween-80 122 % of control

O=C(CNC(=O)c1ccccc1)N/N=C/c1ccco1
inactive: [1] 94 % of control | [2] 90 % of control | [3] 95 % of control

O=C(/C=C/c1ccccc1Cl)c1ccccc1[N+](=O)[O-]
inactive: [1] 89 % of control | [2] 94 % of control | [3] 95 % of control

CCOC(=O)C(C)OC(=O)c1ccccc1 (stereo not given)
inactive: [1] 103 % of control | [4] 91 % of control | [2] 105 % of control | [5] 105 % of control | [3] 100 % of control | [6] 103 % of control

CC1(C(Cl)(Cl)Cl)C=CC(=O)C=C1
inactive: [7] 101 % of control | [4] 101 % of control | [5] 97 % of control

CC(=O)COc1ccccc1[N+](=O)[O-]
inactive: [8] 108 % of control | [9] 104 % of control | [10] 112 % of control

Cc1ccc2c(C)nc(N=C(N)N)nc2c1
inactive: dose: 18.8 mg/kg/injection, schedule: Q01DX009 (ip), vehicle: saline 103 % of control | dose: 37.5 mg/kg/injection, schedule: Q01DX009 (ip), vehicle: saline 96 % of control

O=C(N/N=C(/C(=N/NC(=O)c1ccccc1)c1ccccc1)c1ccccc1)c1ccccc1
inactive: [5] 91 % of control | [6] 87 % of control

CC(=O)OCC1OC(n2cc(F)c(=O)[nH]c2=O)CC1OC(C)=O (stereo not given)
inactive: dose: 50.0 mg/kg/injection, schedule: Q01DX009 (ip), vehicle: other 123 % of control | dose: 100.0 mg/kg/injection, schedule: Q01DX001 (ip), vehicle: other 93 % of control | dose: 200.0 mg/kg/injection, schedule: Q01DX001 (ip), vehicle: other 110 % of control | dose: 200.0 mg/kg/injection, schedule: Q01DX009 (ip), vehicle: other 117 % of control | dose: 400.0 mg/kg/injection, schedule: Q01DX001 (ip), vehicle: other 102 % of control | dose: 800.0 mg/kg/injection, schedule: Q01DX001 (ip), vehicle: other 119 % of control

CC(CN1c2ccccc2Sc2ccccc21)N(C)CCO (stereo not given)
inactive: dose: 50.0 mg/kg/injection, schedule: Q01DX001 (ip), vehicle: saline 101 % of control | dose: 100.0 mg/kg/injection, schedule: Q01DX001 (ip), vehicle: saline 101 % of control | dose: 200.0 mg/kg/injection, schedule: Q01DX001 (ip), vehicle: saline 97 % of control | dose: 400.0 mg/kg/injection, schedule: Q01DX001 (ip), vehicle: saline 97 % of control

O=C(O)CCC(NC(=O)OCc1ccccc1)C(=O)OCc1ccccc1 (stereo not given)
inactive: [4] 95 % of control | [5] 93 % of control | [6] 96 % of control

CN(C)c1ccc(C(=N)c2ccc(N(C)C)cc2)cc1 (tested in a mixture with another compound)
inactive: dose: 12.5 mg/kg/injection, schedule: Q01DX009 (ip), vehicle: saline with Tween-80 98 % of control | [11] 93 % of control

c1ccc(CCNCc2ccccc2)cc1
inactive: [12] 94 % of control | [11] 98 % of control | [7] 104 % of control | [1] 88 % of control | [4] 97 % of control

CC(C)(C)C1=CC(=N/S(=O)(=O)c2ccccc2)/C(N=[N+]=[N-])=C(Cl)C/1=N\S(=O)(=O)c1ccccc1
inactive: dose: 25.0 mg/kg/injection, schedule: Q01DX001 (ip), vehicle: saline with Tween-80 101 % of control | dose: 50.0 mg/kg/injection, schedule: Q01DX001 (ip), vehicle: saline with Tween-80 93 % of control | [8] 93 % of control | [9] 95 % of control | [10] 100 % of control

CC(=O)SCCCCl
inactive: dose: 100.0 mg/kg/injection, schedule: Q01DX009 (ip), vehicle: saline 97 % of control | dose: 200.0 mg/kg/injection, schedule: Q01DX009 (ip), vehicle: saline 101 % of control

Clc1ccc(OCc2sc3ccc(Cl)cc3c2CN2CCCCC2)cc1
inactive: [12] 100 % of control | [11] 97 % of control | [1] 95 % of control

[Cl][Pt+2][Cl].[NH-]C1CCCC2CCC[N-]C12 (stereo not given)
inactive: [13] 105 % of control | [14] 121 % of control | [15] 110 % of control

CCOC(=O)C(=C=C(C(=O)OCC)C(=O)OCC)C(=O)OCC
inactive: dose: 25.0 mg/kg/injection, schedule: Q01DX005 (ip), vehicle: saline with Tween-80 97 % of control | [12] 95 % of control | dose: 25.0 mg/kg/injection, schedule: Q04DX002 (ip), vehicle: saline with Tween-80 103 % of control | dose: 50.0 mg/kg/injection, schedule: Q01DX005 (ip), vehicle: saline with Tween-80 92 % of control and 97 % of control | [11] 98 % of control | dose: 50.0 mg/kg/injection, schedule: Q04DX002 (ip), vehicle: saline with Tween-80 88 % of control and 106 % of control | dose: 100.0 mg/kg/injection, schedule: Q01DX005 (ip), vehicle: saline with Tween-80 94 % of control | [1] 95 % of control | [13] 103 % of control and 106 % of control | dose: 200.0 mg/kg/injection, schedule: Q01DX005 (ip), vehicle: saline with Tween-80 86 % of control and 94 % of control | [2] 91 % of control | [14] 95 % of control and 98 % of control | [15] 98 % of control

Nc1nnc(Cl)s1
inactive: [8] 108 % of control | [9] 104 % of control | [10] 97 % of control

C=C(Br)CNS(=O)(=O)c1ccc(OC)cc1
inactive: [1] 93 % of control | [2] 97 % of control | [3] 96 % of control
